Data taken from patent US20100292205A1, “Pyrimidone Compounds As GSK-3 Inhibitors” (PFIZER INC., priority 2006, published 2010).

molecular target: T1, Recombinant human GSK3β (Homo sapiens, UniProt P49841); test: GSK-3β (Glycogen Synthase Kinase) cell free enzyme assay; type: biochemical; settings: cell free enzyme assay; Examples 62-155
T1 construct: His-tag; made in house; host or cells: Sf9 insect cells / baculovirus
Experimental: Assay Protocol for GSK-3β (Glycogen Synthase Kinase) in a Cell Free Enzyme Assay
Recombinant human GSK3β was expressed in SF9/Baculo virus cells. His-tag protein was purified by affinity chromatography to a Ni-NTA Superflow column. Enzyme activity was assayed as the incorporation of [33P] from the gamma phosphate of [33P]ATP (PerkinElmer) into biotinylated peptide substrate bio-LC-S-R-H-S-S-P-H-Q-pS-E-D-E-E-E-OH (Anaspec). Reactions were carried out in a buffer containing 8 mM MOPS (pH 7.0), 10 mM Magnesium Acetate, 0.2 mM EDTA, 1 mM DTT and 2 uM cold ATP. The 33P-ATP was added for 0.025 uCi/well (120 uL) and the final concentration of substrate was 1.0 uM. Enzyme was preincubated with test agent for 30 minutes at room temperature followed by initiation of the reaction by the addition of substrate mix. Incubations were carried out at RT for 60 min. Reactions were stopped by addition of 0.66 volume of buffer containing: 12.5 mM EDTA, 0.25% Triton-X 100, 125 uM ATP, and 6.2 mg/ml streptavidin coated SPA beads (Amersham) in PBS without Ca or Mg. Radioactivity associated with the beads was quantified by scintillation counting of CPM in a Trilux counter (PerkinElmer).
Examples 42 to 60 were prepared using the analogous procedure described to prepare Example 41, substituting the appropriate starting material (Examples 1 to 35) and coupling with the appropriate acid. The assay protocol used is the percent inhibition at 1 μM for GSK-3β in the cell free enzyme assay described above.

T1 sequence (P49841 whole entry): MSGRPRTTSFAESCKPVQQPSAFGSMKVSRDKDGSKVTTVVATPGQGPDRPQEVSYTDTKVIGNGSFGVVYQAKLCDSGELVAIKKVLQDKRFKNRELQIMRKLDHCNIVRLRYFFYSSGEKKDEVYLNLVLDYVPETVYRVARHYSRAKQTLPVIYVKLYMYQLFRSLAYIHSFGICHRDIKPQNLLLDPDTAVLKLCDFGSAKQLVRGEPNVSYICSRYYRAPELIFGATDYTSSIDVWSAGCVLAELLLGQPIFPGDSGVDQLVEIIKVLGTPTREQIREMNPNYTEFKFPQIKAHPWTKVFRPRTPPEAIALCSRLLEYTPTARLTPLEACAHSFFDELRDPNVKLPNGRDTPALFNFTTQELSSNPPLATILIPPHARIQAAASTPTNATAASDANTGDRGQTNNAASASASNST

| Structure (SMILES) | IC50 [nM] |
| --- | --- |
| CCN(c1nc(-c2ccncc2)cc(=O)n1C)C1CCCN(C(=O)c2ccccc2)C1 (stereo not drawn) [Example 73, 2-[(1-Benzoylpiperidin-3-yl)(ethyl)amino]-3-methyl-6-pyridin-4-ylpyrimidin-4(3H)-one] | 345 |
| CCN(c1nc(-c2ccncc2)cc(=O)n1C)C1CCN(C(=O)c2ccccc2)CC1 [Example 74, 2-[(1-Benzoylpiperidin-4-yl)(ethyl)amino]-3-methyl-6-pyridin-4-ylpyrimidin-4(3H)-one] | 144 |
| Cn1c(NC[C@@H]2CCCN2C(=O)c2ccccc2)nc(-c2ccncc2)cc1=O [Example 75, 2-({[(2S)-1-Benzoylpyrrolidin-2-yl]methyl}amino)-3-methyl-6-pyridin-4-ylpyrimidin-4(3H)-one] | 183 |
| Cn1c(NCC2CN(C(=O)c3ccccc3)C2)nc(-c2ccncc2)cc1=O [Example 76, 2-{[(1-Benzoylazetidin-3-yl)methyl]amino}-3-methyl-6-pyridin-4-ylpyrimidin-4(3H)-one] | 72.4 |
| CCN(C[C@H]1CCCN1C(=O)c1ccccc1)c1nc(-c2ccncc2)cc(=O)n1C [Example 77, 2-[{[(2R)-1-Benzoylpyrrolidin-2-yl]methyl}(ethyl)amino]-3-methyl-6-pyridin-4-ylpyrimidin-4(3H)-one] | 29.5 |
| Cn1c(NC[C@H]2CCCN2C(=O)c2ccccc2)nc(-c2ccncc2)cc1=O [Example 78, 2-({[(2R)-1-Benzoylpyrrolidin-2-yl]methyl}amino)-3-methyl-6-pyridin-4-ylpyrimidin-4(3H)-one] | 277 |
| Cn1c(NCC2CCN(C(=O)c3ccccc3)C2)nc(-c2ccncc2)cc1=O (stereo not drawn) [Example 79, 2-{[(1-Benzoylpyrrolidin-3-yl)methyl]amino}-3-methyl-6-pyridin-4-ylpyrimidin-4(3H)-one] | 69.9 |
| Cn1c(NC2CCCN(C(=O)Cc3ccccc3)CC2)nc(-c2ccncc2)cc1=O (stereo not drawn) [Example 80, 3-Methyl-2-{[1-(phenylacetyl)azepan-4-yl]amino}-6-pyridin-4-ylpyrimidin-4(3H)-one] | 53.8 |
| Cn1c(NC2CCN(C(=O)Cc3ccccc3)C2)nc(-c2ccncc2)cc1=O (stereo not drawn) [Example 81, 3-Methyl-2-{[1-(phenylacetyl)pyrrolidin-3-yl]amino}-6-pyridin-4-ylpyrimidin-4(3H)-one] | 111 |
| Cn1c(NC2CN(C(=O)Cc3ccccc3)C2)nc(-c2ccncc2)cc1=O [Example 82, 3-Methyl-2-{[1-(phenylacetyl)azetidin-3-yl]amino}-6-pyridin-4-ylpyrimidin-4(3H)-one] | 818 |
| Cn1c(N[C@H]2CN(C(=O)Cc3ccccc3)C[C@@H]2F)nc(-c2ccncc2)cc1=O [Example 83, 2-{[(3S,4S)-4-Fluoro-1-(phenylacetyl)pyrrolidin-3-yl]amino}-3-methyl-6-pyridin-4-ylpyrimidin-4(3H)-one] | 39 |
| Cn1c(NC2CCCCN(C(=O)Cc3ccccc3)C2)nc(-c2ccncc2)cc1=O (stereo not drawn) [Example 84, 3-Methyl-2-{[1-(phenylacetyl)azepan-3-yl]amino}-6-pyridin-4-ylpyrimidin-4(3H)-one] | 674 |
| Cn1c(NC2CCN(C(=O)Cc3ccccc3)CC2)nc(-c2ccncc2)cc1=O [Example 85, 3-Methyl-2-{[1-(phenylacetyl)piperidin-4-yl]amino}-6-pyridin-4-ylpyrimidin-4(3H)-one] | 333 |
| Cn1c(NC2CCCN(C(=O)Cc3ccccc3)C2)nc(-c2ccncc2)cc1=O (stereo not drawn) [Example 86, 3-Methyl-2-{[1-(phenylacetyl)piperidin-3-yl]amino}-6-pyridin-4-ylpyrimidin-4(3H)-one] | 136 |
| Cn1c(N[C@@H]2CN(C(=O)Cc3ccccc3)C[C@@H]2F)nc(-c2ccncc2)cc1=O [Example 87, 2-{[(3R,4S)-4-Fluoro-1-(phenylacetyl)pyrrolidin-3-yl]amino}-3-methyl-6-pyridin-4-ylpyrimidin-4(3H)-one] | 285 |

Results, then the compound that gave them:

| IC50 [nM] | Structure (SMILES) |
| --- | --- |
| 102 | CN(c1nc(-c2ccncc2)cc(=O)n1C)C1CCCN(C(=O)Cc2ccccc2)CC1 (stereo not drawn) [Example 88, 3-Methyl-2-{methyl[1-(phenylacetyl)azepan-4-yl]amino}-6-pyridin-4-ylpyrimidin-4(3H)-one] |
| 64.6 | CCN(c1nc(-c2ccncc2)cc(=O)n1C)C1CCCN(C(=O)Cc2ccccc2)CC1 (stereo not drawn) [Example 89, 2-{Ethyl[1-(phenylacetyl)azepan-4-yl]amino}-3-methyl-6-pyridin-4-ylpyrimidin-4(3H)-one] |
| 133 | CN(c1nc(-c2ccncc2)cc(=O)n1C)C1CCN(C(=O)Cc2ccccc2)C1 (stereo not drawn) [Example 90, 3-Methyl-2-{methyl[1-(phenylacetyl)pyrrolidin-3-yl]amino}-6-pyridin-4-ylpyrimidin-4(3H)-one] |
| 147 | CCN(c1nc(-c2ccncc2)cc(=O)n1C)C1CCCN(C(=O)Cc2ccccc2)C1 (stereo not drawn) [Example 91, 2-{Ethyl[1-(phenylacetyl)piperidin-3-yl]amino}-3-methyl-6-pyridin-4-ylpyrimidin-4(3H)-one] |
| 105 | CCN(c1nc(-c2ccncc2)cc(=O)n1C)C1CCN(C(=O)Cc2ccccc2)CC1 [Example 92, 2-{Ethyl[1-(phenylacetyl)piperidin-4-yl]amino}-3-methyl-6-pyridin-4-ylpyrimidin-4(3H)-one] |
| 878 | Cn1c(NC[C@@H]2CCCN2C(=O)Cc2ccccc2)nc(-c2ccncc2)cc1=O [Example 93, 3-Methyl-2-({[(2S)-1-(phenylacetyl)pyrrolidin-2-yl]methyl}amino)-6-pyridin-4-ylpyrimidin-4(3H)-one] |
| 18.2 | CCN(C[C@H]1CCCN1C(=O)Cc1ccccc1)c1nc(-c2ccncc2)cc(=O)n1C [Example 94, 2-(Ethyl{[(2R)-1-(phenylacetyl)pyrrolidin-2-yl]methyl}amino)-3-methyl-6-pyridin-4-ylpyrimidin-4(3H)-one] |
| 1380 | Cn1c(NCC2CN(C(=O)Cc3ccccc3)C2)nc(-c2ccncc2)cc1=O [Example 95, 3-Methyl-2-({[1-(phenylacetyl)azetidin-3-yl]methyl}amino)-6-pyridin-4-ylpyrimidin-4(3H)-one] |
| 3.92 | CN(c1nc(-c2ccncc2F)cc(=O)n1C)[C@H]1[C@@H]2CN(C(=O)c3cccc(Cl)n3)C[C@@H]21 [Example 96, 2-[{(1R,5S,6s)-3-[(6-Chloropyridin-2-yl)carbonyl]-3-azabicyclo[3.1.0]hex-6-yl}(methyl)amino]-6-(3-fluoropyridin-4-yl)-3-methylpyrimidin-4(3H)-one] |
| 55.4 | CN(c1nc(-c2ccncc2F)cc(=O)n1C)[C@H]1[C@@H]2CN(C(=O)CC(F)(F)F)C[C@@H]21 [Example 97, 6-(3-Fluoropyridin-4-yl)-3-methyl-2-{methyl[(1R,5S,6s)-3-(3,3,3-trifluoropropanoyl)-3-azabicyclo[3.1.0]hex-6-yl]amino}pyrimidin-4(3H)-one] |
| 4.39 | CN(c1nc(-c2ccncc2F)cc(=O)n1C)[C@H]1[C@@H]2CN(C(=O)c3ccccc3C(F)(F)F)C[C@@H]21 [Example 98, 6-(3-Fluoropyridin-4-yl)-3-methyl-2-(methyl{(1R,5S,6s)-3-[2-(trifluoromethyl)benzoyl]-3-azabicyclo[3.1.0]hex-6-yl}amino)pyrimidin-4(3H)-one] |
| 1.46 | COc1cccc(C(=O)N2C[C@@H]3[C@H](C2)[C@H]3N(C)c2nc(-c3ccncc3F)cc(=O)n2C)c1 [Example 99, 6-(3-Fluoropyridin-4-yl)-2-{[(1R,5S,6s)-3-(3-methoxybenzoyl)-3-azabicyclo[3.1.0]hex-6-yl](methyl)amino}-3-methylpyrimidin-4(3H)-one] |
